# Test results: BindingDB's records for patent US11760761 (Aligos Therapeutics, 2023)
# Biological target: Programmed cell death 1 ligand/protein 1 (Homo sapiens, UniProt Q9NZQ7)
# Assay: PDL1/PD1 Binding Assay
# Protocol: Compounds to be tested were serially diluted in DMSO, and further diluted in assay buffer (25 mM Hepes pH 7.4, 150 mM NaCl, 0.005% Tween 20, BSA 0.01%). Diluted compounds were added to the wells with final concentration of DMSO at 1%. PDL1-6×His protein was added to the wells, mixed well with compound. The plates were incubated for 30 min at room temperature. PD1-Fc-Avi-Biotin protein was added to the wells. Final concentration of PDL1 and PD1 protein is 0.3 nM and 2.5 nM, respectively. After a binding time of 30 min at room temperature, Anti-6×His Acceptor beads (final concentration 20 ug/ml) were added to the wells, and the incubation continued for 1 h. Streptavidin Donor beads (final concentration 20 ug/mL) were added at reduced light. The plates were sealed with foil and incubated in the dark for additional 1 h or overnight before reading on an Envision reader.
# Chain of Programmed cell death 1 ligand/protein 1 (Q9NZQ7 whole entry): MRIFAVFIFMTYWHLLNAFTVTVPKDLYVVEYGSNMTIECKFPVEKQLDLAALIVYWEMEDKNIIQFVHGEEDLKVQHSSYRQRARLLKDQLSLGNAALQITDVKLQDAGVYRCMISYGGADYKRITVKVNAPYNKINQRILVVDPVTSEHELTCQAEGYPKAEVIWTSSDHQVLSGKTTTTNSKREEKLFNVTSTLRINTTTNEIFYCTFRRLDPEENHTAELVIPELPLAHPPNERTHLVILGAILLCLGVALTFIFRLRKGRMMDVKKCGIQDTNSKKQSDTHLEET
# Chain of Programmed cell death 1 ligand/protein 1 (Q15116 whole entry, further chain): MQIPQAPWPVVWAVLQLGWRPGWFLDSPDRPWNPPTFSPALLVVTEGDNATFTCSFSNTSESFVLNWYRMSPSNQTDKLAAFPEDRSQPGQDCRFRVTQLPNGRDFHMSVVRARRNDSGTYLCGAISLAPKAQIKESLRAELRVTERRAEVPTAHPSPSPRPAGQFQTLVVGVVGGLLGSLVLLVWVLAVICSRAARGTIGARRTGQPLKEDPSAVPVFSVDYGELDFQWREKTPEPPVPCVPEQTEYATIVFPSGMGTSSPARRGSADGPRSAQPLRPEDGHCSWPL
row,SMILES,IC50 [nM]
1,"COc1cc(-c2cccc(-c3cccc(-c4cnc(CN5CC6(CCC(=O)N6)C5)c(OC)n4)c3Cl)c2Cl)cc2c1[C@H](NCC(=O)O)CC2 (single isomer, unassigned) [US11760761, Compound B-2]",< 10
2,"COc1cc(-c2cccc(-c3cccc(-c4cnc(CN5CC6(CCC(=O)N6)C5)c(OC)n4)c3Cl)c2Cl)cc2c1[C@@H](NCC(=O)O)CC2 [US11760761, Compound B-1]",< 10
3,"COc1nc(-c2cccc(-c3cccc(-c4cc5c(c(OC)n4)[C@@H](NC[C@@H]4CCC(=O)N4)CC5)c3Cl)c2Cl)cnc1CN1CC2(CCC(=O)N2)C1 [US11760761, Compound C-1]",< 10
4,"COc1nc(-c2cccc(-c3cccc(-c4cc5c(c(OC)n4)[C@@H](NC[C@@H]4CCC(=O)N4)CC5)c3Cl)c2Cl)cnc1CN1CC2(C1)CN(C(C)=O)C2 [US11760761, Compound D-1]",< 10
5,"COc1nc(-c2cccc(-c3cccc(-c4cc5c(c(OC)n4)[C@@H](NC[C@@H]4CCC(=O)N4)CC5)c3Cl)c2Cl)ccc1CNC[C@@H]1CCC(=O)N1 [US11760761, Compound E-1]",< 10
6,"COc1nc(-c2cccc(-c3cccc(-c4cc5c(c(OC)n4)[C@@H](NC[C@@H]4CCC(=O)N4)CC5)c3Cl)c2Cl)cc(C)c1CN1CC2(C1)CN(C(C)=O)C2 [US11760761, Compound E-2]",< 10
7,"COc1nc(-c2cccc(-c3cccc(-c4cc5c(c(OC)n4)[C@H](NC[C@@H]4CCC(=O)N4)CO5)c3Cl)c2Cl)ccc1CNC[C@@H]1CCC(=O)N1 [US11760761, Compound E-6]",< 10
8,"COc1nc(-c2cccc(-c3cccc(-c4cc5c(c(OC)n4)[C@H](NC[C@@H]4CCC(=O)N4)CO5)c3Cl)c2Cl)ccc1CN1CC(OC)C1 [US11760761, Compound E-7]",< 10
9,"COc1nc(-c2cccc(-c3cccc(-c4cc5c(c(OC)n4)C(N4CCC[C@@H](C(=O)O)C4)CC5)c3Cl)c2Cl)cnc1CN1CC(O)C1 (stereo not given in full) [US11760761, Compound F-1]",< 10
10,"CCOC(=O)C1CN([C@H]2CCc3cc(-c4cccc(-c5cccc(-c6cnc(CN7CC(O)C7)c(OC)n6)c5Cl)c4Cl)nc(OC)c32)C1 [US11760761, Compound G-1]",< 10
11,"COc1nc(-c2cccc(-c3cccc(-c4cc5c(c(OC)n4)[C@@H](N4CC(C(=O)O)C4)CC5)c3Cl)c2Cl)cnc1CN1CC(O)C1 [US11760761, Compound H-1]",< 10
12,"CCOC(=O)CN1CCc2c(cc(-c3cccc(-c4cccc(-c5cnc(CN6CC(O)C6)c(OC)n5)c4Cl)c3Cl)nc2OC)C1 [US11760761, Compound I-1]",< 10
13,"COc1nc(-c2cccc(-c3cccc(-c4cc5c(c(OC)n4)CCN(CC(=O)O)C5)c3Cl)c2Cl)cnc1CN1CC(O)C1 [US11760761, Compound J-1]",< 10
14,"COc1nc(-c2cccc(-c3cccc(-c4cc5c(c(OC)n4)CCN(C[C@@H]4CCC(=O)N4)C5)c3Cl)c2Cl)cnc1CN1CC2(CCC(=O)N2)C1 [US11760761, Compound K-1]",< 10
15,"COCCN1CCc2c(cc(-c3cccc(-c4cccc(-c5cnc(CN6CC7(CCC(=O)N7)C6)c(OC)n5)c4Cl)c3Cl)nc2OC)C1 [US11760761, Compound K-2]",< 10
